{"source": "patent US11053234B2", "about": "(GlaxoSmithKline Intellectual Property Development Limited, priority 2016, dated 2021)", "data": [{"target": "T1, haematopoietic prostaglandin D synthase (H-PGDS) (Homo sapiens, UniProt O60760)", "T1 construct": "Full length human H-PGDS cDNA (Invitrogen Ultimate ORF 10H13026) was amplified by PCR; 6-His (N); TEV protease cleavage site (N); made in house; host or cells: E. coli BL21 (DE3*), vector pET22b+", "T1 sequence (O60760 whole entry)": "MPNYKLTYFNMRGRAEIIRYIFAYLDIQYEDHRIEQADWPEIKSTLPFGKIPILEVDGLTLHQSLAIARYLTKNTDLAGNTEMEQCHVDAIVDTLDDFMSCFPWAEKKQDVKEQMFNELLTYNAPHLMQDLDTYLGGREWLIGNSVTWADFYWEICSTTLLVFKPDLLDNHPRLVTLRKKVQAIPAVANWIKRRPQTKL", "test": "H-PGDS RapidFire high throughput mass spectrometry assay (conversion of PGH2 to PGD2)", "type": "biochemical", "settings": "10 nM H-PGDS, PGH2 formed in situ by COX-2 from arachidonic acid; read-out: Potency Range (mean pIC50) (converted)", "summary_of_the_method": "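RapidFire SPE–MS read-out calculated percent conversion from relative PGD2 and PGF2α (substrate surrogate) levels. Recombinant full-length human H-PGDS (His-tag, E. coli) turned over PGH2, produced in situ at ˜10 μM by human COX-2 (FLAG-tag, Sf9 cells) acting on arachidonic acid.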", "units": {"IC50": "nM"}, "values": [{"smiles": "C[C@]1(O)CC[C@H](NC(=O)[C@H]2C[C@H](Oc3cccc4cccnc34)C2)CC1", "note": "[Example 182, (trans)-N-((trans)-4-Hydroxy-4-methylcyclohexyl)-3-(quinolin-8-yloxy)cyclobutanecarboxamide]", "IC50": "100 to 1000"}, {"smiles": "CCC(=O)C1CC2(CC(NC(=O)[C@H]3C[C@H](Oc4cc(F)cc5scnc45)C3)C2)C1", "note": "(stereo partly drawn) [Example 233, (trans)-3-((6-Fluorobenzo[d]thiazol-4-yl)oxy)-N-(6-propionylspiro[3.31]heptan-2-yl)cyclobutanecarboxamide]", "IC50": "10 to 79.4"}, {"smiles": "NC(=O)c1ccc(N2CC(NC(=O)[C@H]3C[C@H](Oc4cccc5scnc45)C3)C2)nc1", "note": "[Example 36, 6-(3-((trans)-3-(Benzo[d]thiazol-4-yloxy)cyclobutanecarboxamido)azetidin-1-yl)nicotinamide]", "IC50": "10 to 79.4"}, {"smiles": "CC(C)(O)[C@H]1CC[C@H](NC(=O)[C@H]2C[C@H](Oc3cc(Cl)ccc3Cl)C2)CC1", "note": "[Example 257, (trans)-3-(2,5-Dichlorophenoxy)-N-((trans)-4-(2-hydroxypropan-2-yl)cyclohexyl)cyclobutanecarboxamide]", "IC50": "100 to 1000"}, {"smiles": "COc1ccc(CN2CCC(NC(=O)[C@H]3C[C@H](Oc4cc(F)ccc4OC)C3)CC2)cc1Cl", "note": "[Example 156, (trans)-N-(1-(3-Chloro-4-methoxybenzyl)piperidin-4-yl)-3-(5-fluoro-2-methoxyphenoxy)cyclobutanecarboxamide]", "IC50": "10 to 79.4"}, {"smiles": "CC(C)(O)[C@H]1CC[C@H](NC(=O)[C@H]2C[C@H](Oc3cc(F)ccc3OC(F)F)C2)CC1", "note": "[Example 34, (trans)-3-(2-(Difluoromethoxy)-5-fluorophenoxy)-N-((trans)-4-(2-hydroxypropan-2-yl)cyclohexyl)cyclobutanecarboxamide]", "IC50": "10 to 79.4"}, {"smiles": "CC(C)(C)c1nnc(NC(=O)N2CC(Oc3cccc4scnc34)C2)s1", "note": "[Example 332]", "IC50": "< 10"}, {"smiles": "O=C(Nc1ccccn1)[C@H]1C[C@H](Oc2cccc3cccnc23)C1", "note": "[Example 183, (trans)-N-(Pyridin-2-yl)-3-(quinolin-8-yloxy)cyclobutanecarboxamide]", "IC50": "100 to 1000"}, {"smiles": "COCCO[C@H]1CC[C@H](NC(=O)N2CC(Oc3cc(F)cc4scnc34)C2)CC1", "note": "[Example 128, 3-((6-Fluorobenzo[d]thiazol-4-yl)oxy)-N-((trans)-4-(2-methoxyethoxy)cyclohexyl)azetidine-1-carboxamide]", "IC50": "10 to 79.4"}, {"smiles": "CC(C)(O)[C@H]1CC[C@H](NC(=O)[C@H]2C[C@H](Oc3cccc4cc(F)cnc34)C2)CC1", "note": "[Example 280, (trans)-3-((3-Fluoroquinolin-8-yl)oxy)-N-((trans)-4-(2-hydroxypropan-2-yl)cyclohexyl)cyclobutanecarboxamide]", "IC50": "100 to 1000"}, {"smiles": "CC(C)c1nnc(NC(=O)[C@H]2C[C@H](Oc3cccc4cccnc34)C2)s1", "note": "[Example 198]", "IC50": "10 to 79.4"}, {"smiles": "Cc1cnc(N2CC(NC(=O)[C@H]3C[C@H](Oc4cccc5scnc45)C3)C2)nc1", "note": "[Example 39, (trans)-3-(Benzo[d]thiazol-4-yloxy)-N-(1-(5-methylpyrimidin-2-yl)azetidin-3-yl)cyclobutanecarboxamide]", "IC50": "10 to 79.4"}, {"smiles": "COc1ccc(F)cc1O[C@H]1C[C@H](C(=O)NN2CCc3ccccc32)C1", "note": "[Example 146, (trans)-3-(5-Fluoro-2-methoxyphenoxy)-N-(indolin-1-yl)cyclobutanecarboxamide]", "IC50": "10 to 79.4"}, {"smiles": "CC(C)(O)[C@H]1CC[C@H](NC(=O)N2CC(Oc3cccc4sncc34)C2)CC1", "note": "[Example 299, 3-(Benzo[d]isothiazol-4-yloxy)-N-((trans)-4-(2-hydroxypropan-2-yl)cyclohexyl)azetidine-1-carboxamide]", "IC50": "100 to 1000"}, {"smiles": "CC(N[C@H]1CC[C@H](NC(=O)[C@H]2C[C@H](Oc3cc(F)ccc3OC(F)F)C2)CC1)C(F)F", "note": "(mixture of isomers) [Example 23, Racemic (trans)-3-(2-(Difluoromethoxy)-5-fluorophenoxy)-N-((trans)-4-((1,1-difluoropropan-2-yl)amino)cyclohexyl)cyclobutanecarboxamide]", "IC50": "10 to 79.4"}, {"smiles": "O=C(NC1CN(c2cnccn2)C1)[C@H]1C[C@H](Oc2cccc3scnc23)C1", "note": "[Example 246, (trans)-3-(Benzo[d]thiazol-4-yloxy)-N-(1-(pyrazin-2-yl)azetidin-3-yl)cyclobutanecarboxamide]", "IC50": "10 to 79.4"}, {"smiles": "CC(=O)c1csc(NC(=O)[C@H]2C[C@H](Oc3cccc4c(Br)coc34)C2)n1", "note": "[Example 271, (trans)-N-(4-Acetylthiazol-2-yl)-3-((3-bromobenzofuran-7-yl)oxy)cyclobutanecarboxamide]", "IC50": "10 to 79.4"}, {"smiles": "Cc1cnc(NC(=O)[C@H]2C[C@H](Oc3cccc4cccnc34)C2)o1", "note": "[Example 177, (trans)-N-(5-Methyloxazol-2-yl)-3-(quinolin-8-yloxy)cyclobutanecarboxamide]", "IC50": "10 to 79.4"}, {"smiles": "Cc1nccc(N2CC(NC(=O)[C@H]3C[C@H](Oc4cccc5scnc45)C3)C2)n1", "note": "[Example 50, (trans)-3-(Benzo[d]thiazol-4-yloxy)-N-(1-(2-methylpyrimidin-4-yl)azetidin-3-yl)cyclobutanecarboxamide]", "IC50": "10 to 79.4"}, {"smiles": "COc1ccc(Cl)cc1O[C@H]1C[C@H](C(=O)Nc2nc(C(C)=O)cs2)C1", "note": "[Example 274, (trans)-N-(4-Acetylthiazol-2-yl)-3-(5-chloro-2-methoxyphenoxy)cyclobutanecarboxamide]", "IC50": "< 10"}, {"smiles": "CC(C)(O)[C@H]1CC[C@H](NC(=O)[C@H]2C[C@H](Oc3cccc4ccoc34)C2)CC1", "note": "[Example 267, (trans)-3-(Benzofuran-7-yloxy)-N-((trans)-4-(2-hydroxypropan-2-yl)cyclohexyl)cyclobutanecarboxamide]", "IC50": "10 to 79.4"}, {"smiles": "O=C(N[C@H]1CC[C@@H](NC(CO)C(F)(F)F)CC1)N1CC(Oc2cc(F)cc3scnc23)C1", "note": "(mixture of isomers) [Example 124, Racemic 3-((6-Fluorobenzo[d]thiazol-4-yl)oxy)-N-((cis)-4-((1,1,1-trifluoro-3-hydroxypropan-2-yl)amino)cyclohexyl)azetidine-1-carboxamide]", "IC50": "10 to 79.4"}, {"smiles": "O=C(NCc1ccsc1)[C@H]1C[C@H](Oc2cccc3scnc23)C1", "note": "[Example 252]", "IC50": "100 to 1000"}, {"smiles": "COC(=O)c1coc(N2CC(NC(=O)[C@H]3C[C@H](Oc4cccc5scnc45)C3)C2)n1", "note": "[Example 45, Methyl 2-(3-((trans)-3-(benzo[d]thiazol-4-yloxy)cyclobutanecarboxamido)azetidin-1-yl)oxazole-4-carboxylate]", "IC50": "100 to 1000"}, {"smiles": "CCOC(=O)c1csc(NC(=O)[C@H]2C[C@H](Oc3cccc4cccnc34)C2)n1", "note": "[Example 192, Ethyl 2-((trans)-3-(quinolin-8-yloxy)cyclobutanecarboxamido)thiazole-4-carboxylate]", "IC50": "< 10"}, {"smiles": "CC(C)c1nnc(NC(=O)N2CC(Oc3cccc4scnc34)C2)s1", "note": "[Example 334, 3-(Benzo[d]thiazol-4-yloxy)-N-(5-isopropyl-1,3,4-thiadiazol-2-yl)azetidine-1-carboxamide]", "IC50": "10 to 79.4"}, {"smiles": "COc1ccc(F)cc1O[C@H]1C[C@H](C(=O)NC2CCN(c3ccccn3)CC2)C1", "note": "[Example 157, (trans)-3-(5-Fluoro-2-methoxyphenoxy)-N-(1-(pyridin-2-yl)piperidin-4-yl)cyclobutanecarboxamide]", "IC50": "10 to 79.4"}, {"smiles": "COc1ccc(F)cc1O[C@H]1C[C@H](C(=O)N[C@H]2CC[C@H](C(C)(C)O)CC2)C1", "note": "[Example 168, (trans)-3-(5-Fluoro-2-methoxyphenoxy)-N-((trans)-4-(2-hydroxypropan-2-yl)cyclohexyl)cyclobutanecarboxamide]", "IC50": "10 to 79.4"}, {"smiles": "CC(C)(O)[C@H]1CC[C@H](NC(=O)[C@H]2C[C@H](Oc3cccn4ccnc34)C2)CC1", "note": "[Example 298, (trans)-N-((trans)-4-(2-Hydroxypropan-2-yl)cyclohexyl)-3-(imidazo[1,2-a]pyridin-8-yloxy)cyclobutanecarboxamide]", "IC50": "100 to 1000"}, {"smiles": "CC(C)(O)[C@H]1CC[C@H](NC(=O)N2CC(C(F)c3cccc4cccnc34)C2)CC1", "note": "(mixture of isomers) [Example 256, Racemic 3-(Fluoro(quinolin-8-yl)methyl)-N-((trans)-4-(2-hydroxypropan-2-yl)cyclohexyl)azetidine-1-carboxamide]", "IC50": "100 to 1000"}, {"smiles": "O=C(NC1CCN(c2ccccn2)CC1)N1CC(Oc2cccc3scnc23)C1", "note": "[Example 88, 3-(Benzo[d]thiazol-4-yloxy)-N-(1-(pyridin-2-yl)piperidin-4-yl)azetidine-1-carboxamide]", "IC50": "10 to 79.4"}, {"smiles": "O=C(N[C@H]1CC[C@H](N2CCOC2=O)CC1)N1CC(Oc2cccc3scnc23)C1", "note": "[Example 103, 3-(Benzo[d]thiazol-4-yloxy)-N-((trans)-4-(2-oxooxazolidin-3-yl)cyclohexyl)azetidine-1-carboxamide]", "IC50": "100 to 1000"}, {"smiles": "CS(=O)(=O)c1ccc(NC(=O)N2CC(Oc3cccc4scnc34)C2)nc1", "note": "[Example 311, 3-(Benzo[d]thiazol-4-yloxy)-N-(5-(methylsulfonyl)pyridin-2-yl)azetidine-1-carboxamide]", "IC50": "10 to 79.4"}, {"smiles": "CS(=O)(=O)c1ccc(NC(=O)[C@H]2C[C@H](Oc3cccc4scnc34)C2)cc1", "note": "[Example 242, (trans)-3-(Benzo[d]thiazol-4-yloxy)-N-(4-(methylsulfonyl)phenyl)cyclobutanecarboxamide]", "IC50": "10 to 79.4"}, {"smiles": "CC(C)(O)[C@@H]1CC[C@@H](NC(=O)N2CC(Oc3cccc4scnc34)C2)CO1", "note": "(racemic) [Example 104, Racemic 3-(Benzo[d]thiazol-4-yloxy)-N-((trans)-6-(2-hydroxypropan-2-yl)tetrahydro-2H-pyran-3-yl)azetidine-1-carboxamide]", "IC50": "10 to 79.4"}, {"smiles": "O=C(N[C@H]1C[C@H](Nc2ncccn2)C1)[C@H]1C[C@H](Oc2cccc3scnc23)C1", "note": "[Example 73, (trans)-3-(Benzo[d]thiazol-4-yloxy)-N-((trans)-3-(pyrimidin-2-ylamino)cyclobutyl)cyclobutanecarboxamide]", "IC50": "100 to 1000"}]}]}
